# Marks after values point to notes of the source that are not given here.
# Assays:
# [1] = tested on: mice with bacterial shock induced by LPS; experiment: LPS bacterial shock mice, survival, oral administration (Experiment 10); type: in vivo, BALB/c mice; conditions: LPS 18 mg/kg i.p.
# [2] = tested on: TNF-α in serum of mice administered with LPS; experiment: Serum TNF-α in LPS-administered mice, oral administration (Experiment 11); type: in vivo, BALB/c mice; conditions: LPS 18 mg/kg i.p., serum 90 min after LPS
# Method: The seven mice in another one group were orally administered through a gastric tube with 3′-glucosyl-adenosine N1-oxide, which had been dissolved in PBS, at a dose of 200 mg/kg body weight in a liquid volume of 0.2 mL/head (Experiment group 4). The seven mice in the remaining one group were orally administered through a gastric tube with PBS in a liquid volume of 0.2 mL/head (Experiment group 1). All the mice were intraperitoneally administered with an LPS specimen derived from E. coli (055:B5), commercialized by Sigma-Aldrich Corporation, St. Louis, Mo. USA, which had been dissolved in PBS, at a dose of 18 mg/kg body weight (Experiment groups 1 to 4). For each group, the mice were collected blood from their tail veins at 90 min after administering LPS, followed by assaying the concentrations of TNF-α, IL-6, and IL-10 contained in serum by the same method as in […].
# [3] = tested on: BALB/c mice; experiment: Safeness of injection preparations, i.v. once a day for seven days (Example 2); type: in vivo; conditions: mouse, in vivo, iv
# Method: The safeness of the preparations prepared in the above was evaluated.
# [4] = tested on: IL-10 in serum of mice administered with LPS; experiment: Serum IL-10 in LPS-administered mice, ANO i.v. (Experiment 7); type: in vivo, BALB/c mice; conditions: LPS 18 mg/kg i.p., serum two hours after LPS
# Method: More specifically, 18 BALB/c female mice, 9-week-old, commercialized by Japan Charles River, Tokyo, Japan, were randomly divided into three groups, six heads each. An LPS specimen derived from E. coli (055:B5), commercialized by Sigma-Aldrich Corporation, St. Louis, Mo. USA, was dissolved in physiological saline and intraperitoneally administered to all the 6 mice in respective three groups at a dose of 18 mg/kg body weight of LPS (Experiment groups 1 to 3). […] To the six mice of the remaining one group was intravenously administered PBS in a liquid volume of 0.2 mL/head simultaneously with the administration of LPS (Experiment group 1).
# For the mice in each group, they were collected blood at two hours after the LPS administration, followed by assaying the level of TNF-α, IL-6, IL-10, and IL-12 in each serum and averaging the data for each group. For the assay of the level of TNF-α, the same ELISA as in Experiment 2 was used and for the assay of the level of IL-6, the same ELISA as in Experiment 3 was used. […]
smiles,measurement,setting,value
"Nc1c2ncn([C@@H]3O[C@H](CO)[C@@H](O)[C@H]3O)c2nc[n+]1[O-] [ANO, adenosine N1-oxide]","Survival rate (%) of mice, 22 Hours",[1]; oral 400 mg/kg (200 × 2 shots),75%
same,"Survival rate (%) of mice, 31 Hours",[1]; oral 400 mg/kg (200 × 2 shots),75%
same,"Survival rate (%) of mice, 46 Hours",[1]; oral 400 mg/kg (200 × 2 shots),50%
same,"Survival rate (%) of mice, 55 Hours",[1]; oral 400 mg/kg (200 × 2 shots),50%
same,"Survival rate (%) of mice, 72 Hours",[1]; oral 400 mg/kg (200 × 2 shots),100%
same,"Survival rate (%) of mice, 79 Hours",[1]; oral 400 mg/kg (200 × 2 shots),50%
same,"Survival rate (%) of mice, 22 Hours",[1]; oral 600 mg/kg (200 × 3 shots),87.5%
same,"Survival rate (%) of mice, 31 Hours",[1]; oral 600 mg/kg (200 × 3 shots),87.5%
same,"Survival rate (%) of mice, 46 Hours",[1]; oral 600 mg/kg (200 × 3 shots),87.5%
same,"Survival rate (%) of mice, 55 Hours",[1]; oral 600 mg/kg (200 × 3 shots),87.5%
same,"Survival rate (%) of mice, 72 Hours",[1]; oral 600 mg/kg (200 × 3 shots),100%
same,"Survival rate (%) of mice, 79 Hours",[1]; oral 600 mg/kg (200 × 3 shots),75%
same,Amount of TNF-α,[2]; oral 100 mg/kg,1339 pg/mL
same,Amount of TNF-α,[2]; oral 200 mg/kg,874* pg/mL
same,change in body weight and other appearance versus PBS,[3],no significant change
same,clinical laboratory test results that provide indices of renal and liver functions versus PBS,[3],no difference
same,IL-10 Concentration,[4]; ANO 68 mg/kg i.v.,14.1 ng/mL
same,IL-10 Concentration,[4]; ANO 135 mg/kg i.v.,19.3 ng/mL

# Source: patent publication US9757408B2 (Hayashibara Co., Ltd., priority 2010, dated 2017)
